Like-named read-outs stand apart in the source and are kept apart here.
Columns and labels:
MDA 435 cells = experiment: Cell growth inhibition: MTT assay, MDA 435 (ER- breast carcinoma); assay type: cell-based; conditions: Homo sapiens, MDA435, read-out: % inhibition of cell growth compared to no drug control
Experimental: ER- breast carcinoma, human (MDA-435) obtained from Dr. Janet Price, MDA Cancer Center, Houston, Tex., were grown in Gibco's RPMI 1640 media supplemented with sodium pyruvate, 10% FBS and 13 ng/mL gentamicin. Cells were incubated at 37° C., 4.5% CO2 and 95.5% humidified air.
(§1) 1. Cell growth inhibition: MTT Assay
(§2) The compounds of formula 1 were tested for ability to inhibit cell growth using the standard MTT assay, a tetrazolium-based assay which measures the viability of cells in culture. Cells were harvested upon reaching 70-80% confluency and pelleted. The cells were then resuspended in medium in which FBS was replaced with Hyclone's Charcoal/Dextran stripped FBS, and seeded (2 mL/well) into 6-well plates (Corning) at a density allowing for linear growth over a four day assay period. Compounds of formula 1 (10 mM stock in dimethylsulfoxide (DMSO)) were added 18-24 hours post-seeding. Compound dilutions were prepared in the appropriate growth media and added to the cells for final concentrations of 10, 3.3 and 1 μM in 0.1% DMSO. At 24, 48 and 72 hr. time points, MTT (3-[4,5-dimethylthiazol-2-yl-2,5-diphenyltetrazolium bromide) stock solution (5mg/mL in 1 PBS) was added to the cells plates (625 μL/well) which were then incubated for 2.5 hours. Liquid was aspirated from the wells and 1 mL/well of 95% ethanol was added to solubilize the formazan reaction product. The plates were shaken (Bellco Mini-Orbital Shaker) for 15 minutes. The solubilized formazan was then transferred (50 μls) into a 96-well plate and the optical densities (OD) were measured (Bio-Tek Microplate Reader) at 570 nm and reference wavelength of 660 nm. Percentage of inhibition of cell growth was calculated according to the following formula: [formula]

[1] = tested on: NMU-induced mammary tumors; experiment: NMU-induced mammary tumors in Sprague-Dawley rats; assay type: in vivo, rat; conditions: for Effect on tumors (in words): i.p., tumor size and number; for Number of first tumors with volume relative to day 0: progressed > 100% / Number of first tumors with volume relative to day 0: regressed > 50% / Number of first tumors with volume relative to day 0: static / Number of first tumors: total: 25 mg/kg i.p. q.d.; for No. of first tumors regressing to unpalpable/no. palpable at day 0: 25 mg/kg i.p., 5×/wk for 4 weeks
From the text: Thus, compounds of formula 1 have efficacy against established nitrosomethylurea (NMU)-induced mammary tumors in rats. The induction of invasive mammary-tissue specific tumors in rats by NMU (Gullino et al., 1975) produces primarily estrogen-dependent carcinomas (Arafah et al., 1980) within as little as 4 weeks following a single, low-toxicity dose (McCormick et al., 1981) and results in a high percentage of tumor induction. The properties of the tumors induced in rats by NMU in this experimental model are representative of human mammary carcinoma and are invasive (McCormick et al., 1981).
Materials and Methods, 750 virgin female Sprague-Dawley rats 26 to 32 days of age (Harlan Laboratories) were housed in polycarbonate cages (3 rats/cage) and provided food and water ad libitum. Mammary tumors were induced essentially as previously described (Gullino et al., 1975 and McCormick et al., 1981). At the age of 50+/-3 days, each animal received a single dose (50 mg/kg body weight) of NMU (Sigma, St. Louis, Mo.) in 0.85% sodium chloride acidified to pH 5.0 with acetic acid. The carcinogen was administered with a 26 g needle i.v. via the tail vein in a 0.5 ml volume.
Rats were checked weekly starting 4 weeks after NMU administration for palpable tumors and those bearing at least one mammary tumor, palpable for 11 days or less, were entered into study on day 61 post-NMU administration. Fifteen animals were entered into treatment or control groups. Tumor diameters were measured weekly with calipers along their long and short axes and tumor volume was calculated from the ellipsoid formula, (D×d^2)/2, where D is the long diameter and d is the short diameter. The days on which new palpable tumors arose or on which established tumors disappeared were noted along with anatomical position. Tumors which appeared in the same anatomical location at which a tumor had previously completely regressed were considered to be regrowths of the same tumor. Rats which developed ulcerations of tumors were immediately terminated from studies. All animals entered into groups were weighed daily on weekdays for 6 weeks.
N-(4-hydroxyphenyl)-(2E,4E,6Z)-7-[3,5-bis(trifluoromethyl)phenyl]-3,7-dimethyl-2,4,6-heptatrienamide was prepared in 4% ethanol, 8% PEG400, 7.2% Cremophor RH40 and 80% D5W and administered intraperitoneally in a 2.8 ml volume via a 21 g needle 5 times per week, q.d., for 4 weeks.
For treatment of NMU-induced tumors in rats, solutions of the test compound N-(4-hydroxyphenyl)-(2E,4E,6Z)-7-[3,5-bis(trifluoromethyl)phenyl]-3,7-dimethyl-2,4,6-heptatrienamide were prepared daily in 4% ethanol, 8% PEG400, 7.2% Cremophor RH40 and 80% D5W.

ZR-75-1 cells = experiment: Cell growth inhibition: MTT assay, ZR-75-1 (ER+ breast carcinoma); assay type: cell-based; conditions: Homo sapiens, read-out: % inhibition of cell growth compared to no drug control
Experimental: ER+ breast carcinoma, human (ZR-75-1) obtained from ATCC (CRL 1500), were grown in Gibco's RPMI 1640 media supplemented with sodium pyruvate, 10% FBS and 13 ng/mL gentamicin. Cells were incubated at 37° C., 4.5% CO2 and 95.5% humidified air.
as §1, §2

C/C(=C/C=C/C(C)=C/C(=O)Nc1ccc(O)cc1)c1cc(C(F)(F)F)cc(C(F)(F)F)c1 [N-(4-hydroxyphenyl)-(2E,4E,6Z)-7-[3,5-bis(trifluoromethyl)phenyl]-3,7-dimethyl-2,4,6-heptatrienamide]
inhibition at 1 µM (MDA 435 cells; 24 hours): 47% | inhibition at 3.3 µM (MDA 435 cells; 24 hours): 78% | inhibition at 10 µM (MDA 435 cells; 24 hours): 77% | inhibition at 1 µM (MDA 435 cells; 48 hours): 59% | inhibition at 3.3 µM (MDA 435 cells; 48 hours): 91% | inhibition at 10 µM (MDA 435 cells; 48 hours): 95% | inhibition at 1 µM (MDA 435 cells; 72 hours): 94% | inhibition at 3.3 µM (MDA 435 cells; 72 hours): 96% | inhibition at 10 µM (MDA 435 cells; 72 hours): 98% | Rats treated that succumbed to toxicity ([1]; 25 mg/kg/2.8 ml i.p. q.d., 5×/wk for 4 wks): 3 of 15 | Effect on tumors (in words) [1]: decrease both tumor size and tumor number | Effect on tumors (in words) ([1]; listed as the tested compound): capable of causing existing tumors to shrink, and, in addition, causes the number of tumors to decrease by eliminating first tumors and preventing additional tumors from arising | Number of first tumors with volume relative to day 0: progressed > 100% ([1]; week 1, 5×/wk for 4 wks): 4 | Number of first tumors with volume relative to day 0: regressed > 50% ([1]; week 1, 5×/wk for 4 wks): 10 | Number of first tumors with volume relative to day 0: static ([1]; week 1, 5×/wk for 4 wks): 5 | Number of first tumors: total ([1]; week 1, 5×/wk for 4 wks): 19 | No. of first tumors regressing to unpalpable/no. palpable at day 0 ([1]; week 1, ** p < 0.005 vs vehicle): 7/20 | Number of first tumors with volume relative to day 0: progressed > 100% ([1]; week 2, 5×/wk for 4 wks): 6 | Number of first tumors with volume relative to day 0: regressed > 50% ([1]; week 2, 5×/wk for 4 wks): 8 | Number of first tumors with volume relative to day 0: static ([1]; week 2, 5×/wk for 4 wks): 5 | Number of first tumors: total ([1]; week 2, 5×/wk for 4 wks): 19 | No. of first tumors regressing to unpalpable/no. palpable at day 0 ([1]; week 2, * p < 0.05 vs vehicle): 5/19 | Number of first tumors with volume relative to day 0: progressed > 100% ([1]; week 3, 5×/wk for 4 wks): 6 | Number of first tumors with volume relative to day 0: regressed > 50% ([1]; week 3, 5×/wk for 4 wks): 6 | Number of first tumors with volume relative to day 0: static ([1]; week 3, 5×/wk for 4 wks): 3 | Number of first tumors: total ([1]; week 3, 5×/wk for 4 wks): 19 | No. of first tumors regressing to unpalpable/no. palpable at day 0 ([1]; week 3): 3/19 | No. of first tumors regressing to unpalpable/no. palpable at day 0 ([1]; week 4, * p < 0.05 vs vehicle): 4/19 | No. of first tumors regressing to unpalpable/no. palpable at day 0 ([1]; week 5): 4/18 | No. of first tumors regressing to unpalpable/no. palpable at day 0 ([1]; week 6, * p < 0.05 vs vehicle): 5/18 | inhibition at 1 µM (ZR-75-1 cells; 24 hours): 1% | inhibition at 3.3 µM (ZR-75-1 cells; 24 hours): 14% | inhibition at 10 µM (ZR-75-1 cells; 24 hours): 21% | inhibition at 1 µM (ZR-75-1 cells; 48 hours): 0% | inhibition at 3.3 µM (ZR-75-1 cells; 48 hours): 18% | inhibition at 10 µM (ZR-75-1 cells; 48 hours): 30% | inhibition at 1 µM (ZR-75-1 cells; 72 hours): 13% | inhibition at 3.3 µM (ZR-75-1 cells; 72 hours): 56% | inhibition at 10 µM (ZR-75-1 cells; 72 hours): 64%

Reference: patent publication US6310247A, “7-aryl-6(Z)-heptatrienoic acid retinamides” (Hoffmann-LA Roche Inc., priority 1999, dated 2001)
